The text below walks through data of US20110319339A1, “NEUROTENSIN-DERIVED BRANCHED PEPTIDES AND USES THEREOF” (priority 2008, published 2011).

In data set [1] the test system is NT receptor.
The subject of data set [2] is HT-29. Briefly: Cytotoxicity of drug-conjugated NT4, MTT growth inhibition. Format: cell-based, human. The following applies: HT29, best EC50 values, 0.15 to 30 μmol/L. The protocol: (§1) Cells were grown without changing the medium for days. Growth inhibition was assessed by 3-(4,5-dimethylthiazol-2-yl)-2,5-diphenyltetrazolium bromide. EC50 values were calculated by non-linear regression analysis using GraphPaD prism 3.02 software.

For data set [3] the following is noted: compared to NT.
Data set [4] has as its system HT-29, PANC-1 and PC-3 tumor cell lines. In words: Cytotoxicity of drug-conjugated NT4, statements on the three cell lines together. Format: cell-based, human. The protocol:
Cells were grown without changing the medium for days.
5-FdU, Monastrol and CBTST were fast released from the adducts. […] The additional washing was performed in order to avoid free drug to diffuse inside the cells during the following six days.

The subject of data set [5] is colon tumors and healthy tissues from the same patient. In words: Binding of fluorophore-conjugated NT4 to human tumor surgical samples versus healthy tissue, confocal fluorescence. As to conditions: any tissue sample (colon and pancreas). The protocol:
Each step was followed by washing with TBS. […] Each step was followed by washing with TBS. […] Analogue monomeric peptides were assayed for comparison. […] All images were processed using the ImageJ software (NIH).

Data set [6] in a line: Classification of functionalized branched peptides as fast or slow/non releasing. As to conditions: ability to release the functional unit from the carrier peptide.
For data set [7], the system named is PC-3. Briefly: Cytotoxicity of drug-conjugated NT4, MTT growth inhibition. The class given is cell-based, human. Here is the method: as §1
Data set [8] concerns HT29 tumors. Briefly: Tumor growth reduction in mice. The class given is in vivo, CD-1 female nude mice. As to conditions: given six times, dose of 3 μg/kg, time-frame of 10 days.
Procedure: In details, CD-1 female nude mice (Charles River Laboratories, Inc.), 5 to 6 weeks of age (mean weight, 20 g), were injected s.c. in the right flank with 1×10^6 HT29 cells. When tumors reached a diameter of 3 to 4 mm (5 days after tumor inoculation) mice were randomly divided into groups (four mice per group) and repeatedly injected in the tail vein (0, 30, 70, 140, 190, 240 hours post first injection) with 500 μL of the following solutions in 0.9% NaCl: (a) 1 mg/mL NT(1-13)4-5FdU (3.05 μmol/kg); (b) 30 μg/mL 5FdU (3.05 μmol/kg); and (c) 0.9% NaCl.
Tumor volumes were measured daily with a caliper using the following formula: volume=length*width2*π/6. 21 days after tumor inoculation, ie 6 days after the last treatment, mice were sacrificed, tumors, removed and weighted. […] Statistical analysis was done using Student's t test (p<0.05).

For the compound NT(8-13)4-beta-Ala-Biotin, the “binding activity to NT receptor” value in data set [1] (compared to NT(8-13)4) is reported as “loose binding activity”.

For orientation: EC50 means the concentration at which the effect is half-maximal. In data set [2], “NT(8-13)-betaAla-K(PEG-5-fluorodeoxyuridine) [NT4(8-13)-5-FdU]” registered an EC50 of 330 nM. This counts as sub-micromolar.

For QHWSYGLRPG [LHRH], in data set [3], the “in vitro binding profiles” value was “lower”.

Consider NT4-peg-Biotin, for which the IC50 values result in data set [1] (compared to that of NT4) is reported as “comparable”.

As to “NT(8-13)-betaAla-K(PEG-Monastrol) [NT4(8-13)-Mon]”, the “activity compared to the parent free drug” value in data set [4] is recorded as “no improvement”.

Consider “NT(8-13)-betaAla-K(PEG-6-mercaptopurine) [NT4(8-13)-6-MP]”, for which the “activity compared to the parent free drug” value in data set [4] is “no improvement”.

Turning to NT(1-13)4, the “binding to tissue sample compared to NT(8-13)4” value in data set [5] is listed as “identical”.

As to “NT(8-13)4-betaAla-K(PEG-Chlorambucil) [NT4(8-13)-CLB]”, the “releasing class of the adduct” value in data set [6] was “slow releasing”. For the same compound, in data set [2], the EC50 stood at 1900 nM.

Consider `O=C(O)CCCc1ccc(N(CCCl)CCCl)cc1` [CLB, chlorarnbucil], for which, in data set [7], the “sensitivity of PC-3 cells to the drug” value was “not affected”.

With “NT(8-13)-betaAla-K(PEG-Tirapazamine) [NT4(8-13)-TPZ]”, in data set [6], the “releasing class of the adduct” value was “slow releasing”. In addition, in data set [7] (PC3, best EC50 values, 0.15 to 30 μmol/L, MTT), a half-maximal response (EC50) required 140 nM.

With `CN(Cc1cnc2nc(N)nc(N)c2n1)c1ccc(C(=O)N[C@@H](CCC(=O)O)C(=O)O)cc1` [MTX, methotrexate], the “sensitivity of PC-3 cells to the drug” value in data set [7] is given as “not affected”.

Turning to `O=c1[nH]c(=O)n([C@H]2C[C@H](O)[C@@H](CO)O2)cc1F` [5-FdU, 5-fluoro-2′-deoxyuridine], in data set [7], the “sensitivity of PC-3 cells to the drug” value is reported as “not affected”. In addition, in data set [8], the “inhibition of tumor growth” value stood at 10%.
